Where only a bound is given, the exact number is not on record here.

In test [1] the test system is A2058 (ATCC, CRL-11147) cells. Put plainly: Cell viability assay (Cell Titre Glo, 72 hours) in A2058 cells. It is filed as cell-based. Particulars: Homo sapiens. In outline:
(§1)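 10-point dose response, top final concentration 30 μM, 1 in 3 dilutions; 5000 cells per well added directly to compound. Incubated 72 hours at 37° C, 5% CO2, then viability read by Cell Titre Glo luminescence and IC50 curves fitted.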

Test [2] has as its system PA1 (ECACC, 90013101) cells. Put plainly: Cell viability assay (Cell Titre Glo, 72 hours) in PA1 cells. The format is cell-based. Particulars: Homo sapiens, PA-1. In outline:
as §1

What is called IC50 is the concentration needed to halve the response being measured. On to `CCn1nc(C(=O)N2CCN(c3ccc(OCCOC)cc3Cl)CC2)c2ccccc2c1=O` [Compound 127], for which the IC50 in test [1] and in test [2] was more than 20 µM each time.
`COc1ncc(C)cc1N1CCN(C(=O)c2nn(C)c(=O)c3ccccc23)CC1` [Compound 77]: the IC50 in test [1] and in test [2] was 1 to 10 µM throughout.
For the compound `Cn1nc(C(=O)N2CCN(c3ccccc3)CC2)c2cnccc2c1=O` [Compound 170, 2-methyl-4-(4-phenylpiperazine-1-carbonyl)pyrido[3,4-d]pyridazin-1-one], the concentration for half-maximal inhibition (IC50) in test [1] and in test [2] was more than 20 µM each time.
`COc1ccc(F)c(N2CCN(C(=O)c3nn(C)c(=O)c4ccccc34)CC2)c1` [Compound 44]: the IC50 in test [1] and in test [2] was not above 1 µM each time.
`Cn1nc(C(=O)N2CCN(c3cc(F)cc(OC(F)F)c3)CC2)c2ccccc2c1=O` [Compound 198]: the IC50 in test [1] and in test [2] was not above 1 µM each time.
`COc1nccnc1N1CCN(C(=O)c2nn(C)c(=O)c3ccccc23)CC1` [Compound 16]: the IC50 in test [1] lay within 10 to 20 µM; in test [2], 1 to 10 µM.
Take `CCn1nc(C(=O)N2CCN(c3cccc(OC)n3)CC2)c2ccccc2c1=O` [Compound 84]: the IC50 in test [1] and in test [2] was not above 1 µM each time.
As to `CCOc1cc(F)ccc1N1CCN(C(=O)c2nn(CC)c(=O)c3ccccc23)CC1` [Compound 148], the IC50 in test [1] and in test [2] was not above 1 µM each time.
Turning to `Cn1nc(C(=O)N2CCN(c3cc(C#N)cc(C(F)F)c3)CC2)c2ccccc2c1=O` [Compound 201], the IC50 in test [1] and in test [2] was not above 1 µM each time.
`O=C(c1nn(CC(F)F)c(=O)c2ccccc12)N1CCN(c2ccccc2)CC1` [Compound 7]: the IC50 in test [1] and in test [2] was more than 20 µM throughout.
Regarding `Cn1nc(C(=O)N2CCN(c3nccc4occc34)CC2)c2ccccc2c1=O` [Compound 195], the IC50 in test [1] and in test [2] was 10 to 20 µM in each case.
Take `CCn1nc(C(=O)N2CCN(c3ccc(F)cc3OC(F)F)CC2)c2ccccc2c1=O` [Compound 145]: the IC50 in test [1] was 1 to 10 µM; in test [2], not above 1 µM.
The like results for `COc1ccc(C#N)cc1N1CCN(C(=O)c2nn(C)c(=O)c3ccccc23)CC1` [Compound 70] were, in that order, not above 1 µM and not above 1 µM.
As for `CCn1nc(C(=O)N2CCN(c3ccc(OC)nn3)CC2)c2ccccc2c1=O` [Compound 111], the IC50 in test [1] and in test [2] was more than 20 µM each time.
As for `CCn1nc(C(=O)N2CCN(c3cccc4c3CCO4)CC2)c2ccccc2c1=O` [Compound 155], the IC50 in test [1] and in test [2] was not above 1 µM each time.
`COc1cncnc1N1CCN(C(=O)c2nn(C)c(=O)c3ccccc23)CC1` [Compound 22]: the IC50 in test [1] and in test [2] was more than 20 µM throughout.
With `CCn1nc(C(=O)N2CCN(c3ncncc3OC)CC2)c2ccccc2c1=O` [Compound 98], the IC50 in test [1] and in test [2] was 1 to 10 µM in each case.
On to `Cc1cc(C#N)cc(N2CCN(C(=O)c3nn(C)c(=O)c4ccc(F)cc34)CC2)c1` [Compound 235], for which the IC50 in test [1] and in test [2] was not above 1 µM each time.
For `Cn1nc(C(=O)N2CCN(c3cccc(C#N)c3)CC2)c2cnccc2c1=O` [Compound 219], the IC50 in test [1] and in test [2] was 1 to 10 µM in each case.
For `CCn1nc(C(=O)N2CCN(c3ccc(C)s3)CC2)c2ccccc2c1=O` [Compound 125], the results for the IC50 in test [1] and in test [2] were more than 20 µM and 10 to 20 µM, respectively.
The like results for `Cn1nc(C(=O)N2CCN(c3cc(Cl)cc(Cl)c3)CC2)c2cnccc2c1=O` [Compound 218] were, in that order, not above 1 µM and not above 1 µM.
The like results for `COCc1ccnc(N2CCN(C(=O)c3nn(C)c(=O)c4ccccc34)CC2)n1` [Compound 65] were, in that order, more than 20 µM and more than 20 µM.
The like results for `Cc1cc(C)nc(N2CCN(C(=O)c3nn(C)c(=O)c4ccccc34)CC2)n1` [Compound 64] were, in that order, more than 20 µM and 1 to 10 µM.
For the compound `CCn1nc(C(=O)N2CCN(c3ncccc3F)CC2)c2ccccc2c1=O` [Compound 107], the IC50 in test [1] and in test [2] was more than 20 µM each time.
As to `Cn1nc(C(=O)N2CCN(c3cc(F)cc(Cl)c3)CC2)c2cnccc2c1=O` [Compound 222], the IC50 in test [1] and in test [2] was not above 1 µM throughout.
As for `CCn1nc(C(=O)N2CCN(c3cccc4c3OCC4)CC2)c2ccccc2c1=O` [Compound 126], the IC50 in test [1] and in test [2] was not above 1 µM throughout.
Take `COc1cc(N2CCN(C(=O)c3nn(C)c(=O)c4ccccc34)CC2)ccn1` [Compound 36]: the IC50 in test [1] and in test [2] was more than 20 µM each time.
Take `CC(C)c1cncc(N2CCN(C(=O)c3nn(C)c(=O)c4ccc(F)cc34)CC2)c1` [Compound 209]: the IC50 in test [1] and in test [2] was 10 to 20 µM throughout.
`CCc1ccncc1N1CCN(C(=O)c2nn(C)c(=O)c3ccc(F)cc23)CC1` [Compound 166]: the IC50 in test [1] and in test [2] was not above 1 µM each time.
In the case of `CCn1nc(C(=O)N2CCN(c3cccc4oc(=O)[nH]c34)CC2)c2ccccc2c1=O` [Compound 97], the IC50 in test [1] was more than 20 µM; in test [2], 10 to 20 µM.
Taken in the same sequence, the figures for `CCOc1ccccc1N1CCN(C(=O)c2nn(C)c(=O)c3ccccc23)CC1` [Compound 42] were not above 1 µM and not above 1 µM.
The like results for `Cn1nc(C(=O)N2CCN(c3cccc(Cl)c3)CC2)c2ccccc2c1=O` [Compound 47] were, in that order, not above 1 µM and not above 1 µM.
The like results for `Cn1nc(C(=O)N2CCN(c3cc(F)cc(F)c3)CC2)c2ccccc2c1=O` [Compound 54] were, in that order, not above 1 µM and not above 1 µM.
On to `Cn1nc(C(=O)N2CCN(c3ccc(C(F)(F)F)cc3)CC2)c2ccccc2c1=O` [Compound 27], for which the IC50 in test [1] and in test [2] was 1 to 10 µM throughout.
Regarding `CCn1nc(C(=O)N2CCN(c3ncccc3C)CC2)c2ccccc2c1=O` [Compound 106], the IC50 in test [1] and in test [2] was 1 to 10 µM each time.
For `Cn1nc(C(=O)N2CCN(c3cc(F)cc(OC(F)(F)F)c3)CC2)c2ccccc2c1=O` [Compound 197], the IC50 in test [1] was 1 to 10 µM; in test [2] it was not above 1 µM.
Taken in the same sequence, the figures for `CCn1nc(C(=O)N2CCN(c3nnccc3OC)CC2)c2ccccc2c1=O` [Compound 94] were 10 to 20 µM and 1 to 10 µM.
On to `COc1ncc(Cl)cc1N1CCN(C(=O)c2nn(C)c(=O)c3ccccc23)CC1` [Compound 23], for which the IC50 in test [1] and in test [2] was not above 1 µM each time.
Regarding `COc1cc(F)cc(N2CCN(C(=O)c3nn(C)c(=O)c4ccccc34)CC2)c1` [Compound 34, 4-(4-(3-fluoro-5-methoxyphenyl)piperazine-1-carbonyl)-2-methylphthalazin-1(2H)-one], the IC50 in test [1] and in test [2] was not above 1 µM each time.
Take `Cn1cc(C(=O)N2CCN(c3ccccc3)CC2)c2ccccc2c1=O` [Compound 1, 2-methyl-4-(4-phenylpiperazine-1-carbonyl)isoquinolin-1-one]: the IC50 in test [1] and in test [2] was 1 to 10 µM throughout.
Consider `Cn1nc(C(=O)N2CCN(c3cncnc3C3CC3)CC2)c2cc(F)ccc2c1=O` [Compound 168], for which the IC50 in test [1] was 1 to 10 µM; in test [2], not above 1 µM.

For the origin of these results see US12465603B2, “Phthalazinone based modulators for the treatment of disease” (Soley Therapeutics, Inc., priority 2022, dated 2025).
